Experimental data reported in US20100016331A1, “NOVEL COMPOUNDS” (priority 2006, published 2010).

Columns and labels:
NFkB Activity = assay: Glucocorticoid Mediated Transrepression of NFkB Activity (A549 cells, NFkB dependent ELAM promoter, secreted placental alkaline phosphatase reporter, TNFα stimulated); assay type: cell-based; conditions: Human A549 lung epithelial cells, 3 ng/ml human recombinant TNFα, 16 hr; read-out: pEC50, transrepression of NFkB activity (converted)
Description: Glucocorticoid Mediated Transrepression of NFkB Activity
Human A549 lung epithelial cells were engineered to contain a secreted placental alkaline phosphatase gene under the control of the distal region of the NFkB dependent ELAM promoter as previously described in Ray, K. P., Farrow, S., Daly, M., Talabot, F. and Searle, N. “Induction of the E-selectin promoter by interleukin 1 and tumour necrosis factor alpha, andinhibition by glucocorticoids” Biochemical Journal (1997) 328: 707-15.
Compounds were solvated and dilutedin DMSO, and transferred directly into assay plates such that the final concentration of DMSO was 0.7%. Following the addition of cells (40K per well), plates were incubated for 1 hr prior to the addition of 3 ng/ml human recombinant TNFα. Following continued incubation for 16 hr, alkaline phosphatase activity was determined by measuring the change in optical density at 405 nm with time following the addition of 0.7 volumes of assay buffer (1 mg/ml p-nitrophenylphosphate dissolvedin 1M diethanolamine, 0.28M NaCl, 0.5 mM MgCl2). Dose response curves were constructed from which EC50 values were estimated.

glucocorticoid receptor = target: T1, glucocorticoid receptor (Homo sapiens, UniProt P04150); assay: Glucocorticoid Receptor Binding Assay (fluorescence polarisation, competition with Alexa 555 labelled dexamethasone derivative); conditions: displacement of fluorescent dexamethasone, partially purified full length glucocorticoid receptor, 2 hours at room temperature; read-out: glucocorticoid binding pIC50 (converted)
T1 construct: a partially purified full length glucocorticoid receptor were added to the plates
T1 sequence (P04150 1-777): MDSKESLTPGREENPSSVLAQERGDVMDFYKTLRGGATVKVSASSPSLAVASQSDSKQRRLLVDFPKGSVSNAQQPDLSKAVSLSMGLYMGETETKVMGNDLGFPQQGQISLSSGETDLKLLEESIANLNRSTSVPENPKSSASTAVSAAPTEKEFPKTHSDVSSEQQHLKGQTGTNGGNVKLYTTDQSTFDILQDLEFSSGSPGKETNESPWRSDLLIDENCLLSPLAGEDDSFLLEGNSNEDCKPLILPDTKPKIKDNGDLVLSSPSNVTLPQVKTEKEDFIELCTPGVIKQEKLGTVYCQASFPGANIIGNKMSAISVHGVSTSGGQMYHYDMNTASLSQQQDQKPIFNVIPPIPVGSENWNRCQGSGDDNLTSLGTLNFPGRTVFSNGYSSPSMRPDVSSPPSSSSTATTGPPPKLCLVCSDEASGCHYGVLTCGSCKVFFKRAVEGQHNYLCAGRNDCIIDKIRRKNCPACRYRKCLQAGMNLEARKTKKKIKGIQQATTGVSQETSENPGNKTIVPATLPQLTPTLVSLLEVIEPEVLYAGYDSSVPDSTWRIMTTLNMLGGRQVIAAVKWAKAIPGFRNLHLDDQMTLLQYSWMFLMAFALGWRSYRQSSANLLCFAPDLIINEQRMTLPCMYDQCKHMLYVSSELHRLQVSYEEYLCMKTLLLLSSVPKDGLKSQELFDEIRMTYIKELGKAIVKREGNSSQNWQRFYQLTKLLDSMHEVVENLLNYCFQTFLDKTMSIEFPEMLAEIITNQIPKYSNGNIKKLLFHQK
Method: Glucocorticoid Receptor Binding Assay
The ability of compounds to bind to the glucocorticoid receptor was determined by assessing their ability to compete with an Alexa 555 fluorescently-labelled dexamethasone derivative. Compounds were solvated and dilutedin DMSO, and transferred directly into assay plates. Fluorescent dexamethasone and a partially purified full length glucocorticoid receptor were added to the plates, together with buffer components to stabilise the GR protein (including stabilisation peptide (Panvera catalogue number P2815)) andincubated at room temperature for 2 hours in the dark. Binding of each compound was assessed by analysing the displacement of fluorescent ligand by measuring the decrease in fluorescence polarisation signal from the mixture.

SMILES: COc1ccc(F)cc1C(C)(C)CC(O)(CNc1cc(C)cc2c1cnn2-c1cccc(C(=O)N[C@H]2CCOC2=O)c1)C(F)(F)F (single isomer, unassigned) [Example 21-A]
- EC50 (NFkB Activity): < 0.01 µM
- IC50 (glucocorticoid receptor): < 0.316 µM
